Experimental data reported in US20240410831A1, “Multi-Mode Zinc-Selective Emission-Ratiometric Fluorescent Probes for Biological Application” (Georgia Tech Research Corporation, priority 2023, published 2024).

Assays:
[1] = Molar ratio titration with Zn(OTf)2 in methanol (absorption and fluorescence); type: physicochemical; conditions: for fluorescence emission maximum: excitation at 395 nm
Method: To prevent solution aggregation of the charge-neutral compounds exemplified by Formula I, Formula II, and/or a derivative thereof (e.g., for example probe 8) in PIPES buffer, the initial solution characterization was conducted in analytical grade MeOH. […] Consistent with an increased ground- and excited state polarization upon Zn(II) complexation, the absorption maximum is red-shifted by 34 nm from 376 nm to 410 nm. Sharp isosbestic points at 306 nm and 395 nm, as well as saturation at an equimolar Zn(II) concentration are indicative of a well-defined solution equilibrium involving only the free probe 8 and a discrete Zn(II)-complex with 1:1 metal-ligand stoichiometry.
Similarly, the fluorescence emission maximum of Formula I, Formula II, and/or a derivative thereof (e.g., for example probe 8) is red-shifted from 460 nm to 513 nm upon Zn(II)-binding. […] To provide a direct comparison with previous probes, probe 8 was also analyzed in aqueous buffer containing DMPC/DMPG liposomes that mimic the lipid bilayers present in cells.
A solution of Formula I, Formula II, and/or a derivative thereof (e.g., for example probe 8) (10 μM) in analytical grade MeOH prepared in a quartz cuvette with a 1-cm pathlength was titrated with Zn(OTf)2 (from a 0.3 mM aqueous stock solution) in 1.0 μM (0.1 molar equiv.) increments. After each aliquot of Zn(II), the solution was equilibrated for 1 minute by magnetic stirring, and an absorbance (spectral window: 250-500 nm) and fluorescence spectrum (excitation at 395 nm, spectral window 405-705 nm) were acquired. In another embodiment, a solution of Formula I, Formula II, and/or a derivative thereof (e.g., for example probe 8 in FIG. 4H) (10 PM) in Chelex®-PIPES buffer (10 mM, 0.1 M KCl, pH 7.0, 25° C.) containing 100 μM of liposomes (4:1 mixture of DMPC and DMPG) prepared in a quartz cuvette with a 1-cm pathlength was titrated with Zn(OTf)2 (from a 0.3 mM aqueous stock solution) in 1.0 μM (0.1 molar equiv.) increments. After each aliquot of Zn(II), the solution was equilibrated for 1 minute by magnetic stirring, and a fluorescence spectrum (excitation: 405 nm, spectral window 420-700 nm) was acquired.

[2] = Fluorometric Zn(II) titration in PIPES buffer with DMPC:DMPG liposomes; type: physicochemical; conditions: pH 7.0 buffer, 100 μM liposomes, excitation at 405 nm
Method: To investigate the capability of Formula I, Formula II, and/or a derivative thereof (e.g., for example probe 8) as a dual-mode excitable Zn(II)-selective fluorescent indicator, fluorometric Zn(II)-titrations were performed with excitation at 405 nm. Comprehensive spectroscopic analysis of Formula I, Formula II, and/or a derivative thereof (e.g., for example probe 8) was performed in the presence of liposomes as a biological model-membranes composed of a 4:1 ratio of zwitterionic dimyristoyl […] (DMPC) and anionic dimyristoyl phosphatidylglycerol (DMPG). The probe was directly diluted from a DMSO stock solution into the pH 7.0 buffer containing 100 μM liposomes. […]
A solution of Formula I, Formula II, and/or a derivative thereof (e.g., for example probe 8) (10 μM) in analytical grade MeOH prepared in a quartz cuvette with a 1-cm pathlength was titrated with Zn(OTf)2 (from a 0.3 mM aqueous stock solution) in 1.0 μM (0.1 molar equiv.) increments. After each aliquot of Zn(II), the solution was equilibrated for 1 minute by magnetic stirring, and an absorbance (spectral window: 250-500 nm) and fluorescence spectrum (excitation at 395 nm, spectral window 405-705 nm) were acquired. […] After each aliquot of Zn(II), the solution was equilibrated for 1 minute by magnetic stirring, and a fluorescence spectrum (excitation: 405 nm, spectral window 420-700 nm) was acquired.

[3] = test system: live mouse fibroblast 3T3 cells; experiment: Ratiometric imaging of labile Zn(II) by TPEM (excitation at 750 nm); type: cell-based
Method: With reference to FIG. 7A, emission-ratiometric imaging of labile Zn(II) pools in live mouse fibroblast 3T3 cells with Formula I, Formula II, and/or a derivative thereof (e.g., for example probe 8) by TPEM (excitation at 750 nm). (A) of FIG. 7A Left: The emission was collected with 520 nm-600 nm (BP2) and 440 nm-495 nm (BP1) bandpass filters respectively. Right: Intensity ratio images with R=BP2/BP1. (B) of FIG. 7A Left: Ratio images (BP2/BP1) before (prior to t=5 min) and after the addition of 50 μM ZnSO4 and 5.0 μM pyrithione. Addition of TPEN at t=15 min resulted the reversal of the initial of fluorescence ratio change. (C) of FIG. 7A Mean fluorescence ratio of the cytoplasmic region averaged over 10 cells (P values calculated for n=10 using a two-tailed test). (D) of FIG. 7A Time course of the average ratio change for the mean fluorescence ratio in the cytosol averaged over 10 cells.
To evaluate the Zn(II)-dependent ratiometric response of Formula I and/or Formula IA (e.g., for example probe 8) in live cells, imaging experiments were performed with live mouse fibroblasts (3T3) as model cell line.
In various embodiments, mouse fibroblast (3T3) cells were grown on poly-L-lysine treated glass bottom culture dishes (MatTek) to 90% confluency in DMEM growth media supplemented with 10% bovine calf serum, and 1% penicillin-streptomycin. Before imaging, the media was replaced with pre-warmed colorless serum-free DMEM (1% penicillin-streptomycin, and 1% sodium pyruvate) containing 1.0 μM of probe 8. The cells were incubated at 37° C. under an atmosphere of humidified air containing 5% CO2 for 15 mins. The incubation solution was replaced with prewarmed colorless serum free DMEM. Images were acquired at 37° C., 8% humidity, and 5% CO2 using a Zeiss LSM NLO 710 microscope equipped with a femtosecond pulsed Ti:sapphire laser and a blue 405 nm laser. Scanning fluorescence micrographs were acquired with excitation at 405 nm or 750 nm and the emission was simultaneously collected with bandpass ranges of 495-440 nm (BP1) and 600-520 nm (BP2). Image J was used to evaluate the change in fluorescence emission ratio over time as previously described. The emission ratio for each region of interest was averaged at each time point.
TPEN solid was fully dissolved in anhydrous DMSO to a concentration of 3.0 mM. The stock solution was further diluted to 1.0 mM in pre-warmed phenol-red-free DMEM media before each imaging experiments. The ZnSO4 stock solution was prepared in DI H2O and the pyrithione stock solution was prepared in anhydrous DMSO to a concentration of 3.0 mM. The stock solution of Zn(II)/pyrithione was prepared and diluted with phenol red free DMEM. To determine the limiting emission intensity ratios Rmin and Rmax, mouse fibroblast cells were supplemented with Zn(II)-pyrithione (50 μM ZnSO4 and 5.0 μM pyrithione), and then TPEN (100 μM).

red shift of absorption maximum upon Zn(II) complexation [1]: 34 nm | absorption maximum ([1]; Zn(II) complex): 410 nm | fluorescence emission maximum ([1]; Zn(II)-bound): 513 nm | absorption maximum ([1]; free probe, 10 μM): 376 nm | fluorescence emission maximum ([1]; free probe): 460 nm | emission maximum ([2]; after Zn(II) addition): 515 nm | emission maximum ([2]; free probe): 480 nm
SMILES: COc1ccc2c(c1)C(C)(C)c1nc(-c3cccc(CN(Cc4ncccn4)Cc4ncccn4)n3)sc1-2 [probe 8]
cellular uptake ([3]; 3T3 cells, TPEM): readily internalized | average fluorescence ratio R (BP2/BP1) ([3]; after 50 μM ZnSO4 and 5.0 μM pyrithione, TPEM 750 nm): 1.35±0.16 | average fluorescence ratio R (BP2/BP1) ([3]; after TPEN, TPEM 750 nm): 0.59±0.05 | increase of fluorescence ratio ([3]; after Zn(II)/pyrithione against basal, TPEM 750 nm): more than 2 fold | average fluorescence ratio R (BP2/BP1) ([3]; basal, 1.0 μM probe, TPEM 750 nm): 0.59±0.06
